# Biological target: T1, human C5a receptor (Homo sapiens, UniProt P21730)
# T1 construct: expressed in transfected cells; alternatively isolated human neutrophils (endogenous receptor)
# T1 sequence (P21730 1-350): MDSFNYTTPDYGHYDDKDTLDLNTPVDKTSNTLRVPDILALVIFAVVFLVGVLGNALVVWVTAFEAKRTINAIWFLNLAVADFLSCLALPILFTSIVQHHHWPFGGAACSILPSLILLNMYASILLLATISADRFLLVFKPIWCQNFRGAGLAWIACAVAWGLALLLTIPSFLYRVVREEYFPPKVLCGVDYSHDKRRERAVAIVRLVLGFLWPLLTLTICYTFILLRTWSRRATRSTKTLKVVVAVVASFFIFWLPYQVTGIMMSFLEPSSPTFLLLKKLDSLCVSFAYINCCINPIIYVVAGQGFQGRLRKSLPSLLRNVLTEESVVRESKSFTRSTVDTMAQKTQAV
# Assay: Inhibition of C5aR ligand binding (125I labeled C5a)
# Details: 125I labeled C5a binding to C5aR expressing cells (L1.2 C5aR cells or neutrophils)
# Protocol: L1.2 cells (ATCC #HB-12624) were transfected with a mammalian expression vector constitutively expressing the human C5a receptor (Genbank accession # NM_001736). A stable cell line was produced by selection with G418 for the co-expressed resistance marker. These cells were cultured as a suspension in RPMI-1640 medium supplemented with 2 mM L-glutamine, 1.5 g/L sodium bicarbonate, 4.5 g/L glucose, 10 mM HEPES, 1 mM sodium pyruvate, and 10% FBS. Cells were grown under 5% CO2/95% air, 100% humidity at 37° C. and subcultured twice weekly at 1:6 (cells were cultured at a density range of 1×10^5 to 2×10^6 cells/mL) and harvested at 1×10^6 cells/mL. L1.2 C5aR cells express C5a receptor and can be used in C5aR ligand binding and functional assays.
# Neutrophils were isolated from fresh human blood using density separation and centrifigation. Briefly, whole blood is incubated with equal parts 3% dextran and allowed to separate for 45 minutes. After separation, the top layer is then layered on top of 15 mls of Ficoll (15 mls of Ficoll for every 30 mls of blood suspension) and centrifuged for 30 minutes at 400×g with no brake. The pellet at the bottom of the tube is then isolated and resuspended into PharmLyse RBC Lysis Buffer (BD Biosciences, San Jose, Calif.) after which the sample is again centrifuged for 10 minutes at 400×g with brake. The remaining cell pellet is resuspended as appropriate and consists of isolated neutrophils.
# C5aR expressing cells were centrifuged and resuspended in assay buffer (20 mM HEPES pH 7.1, 140 mM NaCl, 1 mM CaCl2, 5 mM MgCl2, and with 0.2% bovine serum albumin) to a concentration of 5×10^6 cells/mL for L1.2 C5aR cells and […]. Binding assays were set up as follows. 0.1 mL of cells (5×10^5 L1.2 C5aR cells/well or 1×10^5 neutrophils) was added to the assay plates containing the compounds, giving a final concentration of ˜2-10 μM each compound for screening (or part of a dose response for compound IC50 determinations). Then 0.1 mL of ^125I labeled C5a (obtained from Perkin Elmer Life Sciences, Boston, Mass.) diluted in assay buffer to a final concentration of ˜50 pM, yielding ˜30,000 cpm per well, was added (using ^125I labeled C5a with L1.2 C5aR cells and with neutrophils), the plates sealed and incubated for approximately 3 hours at 4° C. on a shaker platform. Reactions were aspirated onto GF/B glass filters pre-soaked in 0.3% polyethyleneimine (PEI) solution, on a vacuum cell harvester (Packard Instruments; Meriden, Conn.). Scintillation fluid (40 μl; Microscint 20, Packard Instruments) was added to each well, the plates were sealed and radioactivity measured in a Topcount scintillation counter (Packard Instruments). Control wells containing either diluent only (for total counts) or excess C5a (1 µg/mL, for non-specific binding) were used to calculate the percent of total inhibition for compound. The computer program Prism from GraphPad, Inc. (San Diego, Calif.) was used to calculate IC50 values. IC50 values are those concentrations required to reduce the binding of radiolabeled C5a to the receptor by 50%. (For further descriptions of ligand binding and other functional assays, see Dairaghi, et al., J. Biol. Chem. 274:21569-21574 (1999), Penfold, et al., Proc. Natl. Acad. Sci. USA. 96:9839-9844 (1999), and Dairaghi, et al, J. Biol. Chem. 272:28206-28209 (1997)).
# To evaluate small organic molecules that prevent the C5a receptor from binding ligand, an assay was employed that detected radioactive ligand (i.e, C5a) binding to cells expressing C5aR on the cell surface (for example, L1.2 C5AR cells or isolated human neutrophils). For compounds that inhibited binding, whether competitive or not, fewer radioactive counts are observed when compared to uninhibited controls.
# Equal numbers of cells were added to each well in the plate. The cells were then incubated with radiolabeled C5a. Unbound ligand was removed by washing the cells, and bound ligand was determined by quantifying radioactive counts. […]
row,SMILES,IC50
1,CC1=C(C(=O)OC2CCCC2)C(c2cccc(O)c2)C2=C(CC(c3ccc(C)c(F)c3)CC2=O)N1 (stereo not shown) [Compound 1.002],< 1000 nM
2,CC1=C(C(=O)OC2CCCC2)C(c2cccc(O)c2)C2=C(CC(c3ccc(C(F)(F)F)cc3)CC2=O)N1 (stereo not shown) [Compound 1.003],< 1000 nM
3,CC1=C(C(=O)OC2CCCC2)C(c2cccc(O)c2)C2=C(CC(C3CCCCC3)CC2=O)N1 (stereo not shown) [Compound 1.004],< 1000 nM
4,CC1=C(C(=O)OC2CCCC2)C(c2cccc(O)c2)C2=C(CC(c3ccc(-c4ccccc4)cc3)CC2=O)N1 (stereo not shown) [Compound 1.005],1000 to 10000 nM
5,CC1=C(C(=O)OC2CCCC2)C(c2cccc(O)c2)C2=C(CN(c3ccccc3)CC2=O)N1 (stereo not shown) [Compound 1.007],1000 to 10000 nM
6,CCOC(=O)C1=C(CCC2CCCC2)NC2=C(C(=O)CC(c3c(C)cc(C)cc3C)C2)C1c1cccc2[nH]ccc12 (stereo not shown) [Compound 1.008],< 1000 nM
7,CC(C)C1=C(C(=O)OC2CCCC2)C(c2cccc(O)c2)C2=C(CC(c3c(Cl)cncc3Cl)CC2=O)N1 (stereo not shown) [Compound 1.010],1000 to 10000 nM

# The remaining lines, values ahead:
row,IC50,SMILES
1,< 1000 nM,Cc1cc(C)c(C2CC(=O)C3=C(C2)NC(C2CC2)=C(C(=O)OC2CCCC2)C3c2cccc(O)c2)c(C)c1 (stereo not shown) [Compound 1.001]
2,< 1000 nM,CC1=C(C(=O)OC2CCCC2)C(c2cccc(O)c2)C2=C(CC(c3ccc4ccccc4c3)CC2=O)N1 (stereo not shown) [Compound 1.006]
3,< 1000 nM,O=C1CC(c2ccc3c(c2)OCO3)CC2=C1C(c1cccc(O)c1)C(C(=O)OC1CCCC1)=C(CC1CCCC1)N2 (stereo not shown) [Compound 1.009]
